Results from patent publication US11331299B2, “Medicinal use of serrulatane diterpenes” (The University of Sydney, priority 2016, dated 2022).
Read-outs that look alike come from different tables or passages of the source.

Tested on: 280 human cancer cell lines
Assay: OncoPanel cell proliferation assay (10-day)
Format: cell-based
Details: Homo sapiens; for IC50: read-out: Cell Count IC50; for EC50: read-out: Cell Count EC50
[1] = SW872, SW872, Soft Tissue - Sarcoma
[2] = SW 954, SW954, Female GU - Vulva
[3] = SW982, SW982, Soft Tissue - Sarcoma
[4] = SW1353, SW1353, Soft Tissue - Osteosarcoma
[5] = TE 125.T, Soft Tissue - Sarcoma
[6] = TE 381.T, Soft Tissue - Sarcoma
[7] = U2OS, Soft Tissue - Osteosarcoma
[8] = U-118-MG, U-118 MG, CNS - Glioma
[9] = VA-ES-BJ, Soft Tissue - Sarcoma
[10] = WM 266-4, WM-266-4, Skin (Melanoma)

CC(C)=CCC[C@@H]1C(O)Oc2c(C)cc(O)c3c2[C@H]1CC[C@H]3C (some centres unmarked) [Compound 2, 5,18-epoxyserrulat-14-en-8,18-diol]
IC50 (SW837, SW837, Colon): > 30 µM | EC50 [1]: 4.46 µM | GI50 (SW872, SW872, Soft Tissue - Sarcoma, read-out: Cell Count GI50): 4.45 µM | IC50 [1]: 4.46 µM | EC50 (SW900, SW900, Lung - SCLC): 26.6 µM | GI50 (SW900, SW900, Lung - SCLC, read-out: Cell Count GI50): 26.7 µM | IC50 (SW900, SW900, Lung - SCLC): 26.8 µM | EC50 (SW948, SW948, Colon): 14.7 µM | GI50 (SW948, SW948, Colon, read-out: Cell Count GI50): 14.5 µM | IC50 (SW948, SW948, Colon): 14.7 µM | EC50 [2]: > 30 µM | GI50 (SW 954, SW954, Female GU - Vulva, read-out: Cell Count GI50): > 30 µM | IC50 [2]: > 30 µM | EC50 [3]: 7.63 µM | GI50 (SW982, SW982, Soft Tissue - Sarcoma, read-out: Cell Count GI50): 7.53 µM | IC50 [3]: 7.63 µM | EC50 (SW1088, SW1088, CNS - Glioma): 10.7 µM | GI50 (SW1088, SW1088, CNS - Glioma, read-out: Cell Count GI50): 10.5 µM | IC50 (SW1088, SW1088, CNS - Glioma): 10.7 µM | EC50 [4]: 9.49 µM | GI50 (SW1353, SW1353, Soft Tissue - Osteosarcoma, read-out: Cell Count GI50): 9.46 µM | IC50 [4]: 9.49 µM | EC50 (SW1417, SW1417, Colon): 22.8 µM | GI50 (SW1417, SW1417, Colon, read-out: Cell Count GI50): 21.8 µM | IC50 (SW1417, SW1417, Colon): 22.8 µM | EC50 (SW1463, SW1463, Colon): > 30 µM | GI50 (SW1463, SW1463, Colon, read-out: Cell Count GI50): > 30 µM | IC50 (SW1463, SW1463, Colon): > 30 µM | EC50 (SW1783, SW1783, CNS - Glioma): 10.2 µM | GI50 (SW1783, SW1783, CNS - Glioma, read-out: Cell Count GI50): 10.5 µM | IC50 (SW1783, SW1783, CNS - Glioma): 11 µM | EC50 (SW-403, SW403, Colon): > 30 µM | GI50 (SW-403, SW403, Colon, read-out: Cell Count GI50): > 30 µM | IC50 (SW-403, SW403, Colon): > 30 µM | EC50 (SW-620, SW620, Colon): 13.2 µM | GI50 (SW-620, SW620, Colon, read-out: Cell Count GI50): 13.2 µM | IC50 (SW-620, SW620, Colon): 13.2 µM | EC50 (SiHa, Female GU - Cervix): 28.3 µM | GI50 (SiHa, Female GU - Cervix, read-out: Cell Count GI50): 25.8 µM | IC50 (SiHa, Female GU - Cervix): 28.3 µM | EC50 (T24, Bladder): 20.4 µM | GI50 (T24, Bladder, read-out: Cell Count GI50): 20.3 µM | IC50 (T24, Bladder): 20.4 µM | EC50 (T47D, Breast): 10.2 µM | GI50 (T47D, Breast, read-out: Cell Count GI50): 9.4 µM | IC50 (T47D, Breast): 10.2 µM | EC50 (T98G, CNS - Glioma): 19.1 µM | GI50 (T98G, CNS - Glioma, read-out: Cell Count GI50): 19 µM | IC50 (T98G, CNS - Glioma): 19.1 µM | EC50 (TCC-SUP, TCCSUP, Bladder): 8.2 µM | GI50 (TCC-SUP, TCCSUP, Bladder, read-out: Cell Count GI50): 7.78 µM | IC50 (TCC-SUP, TCCSUP, Bladder): 8.2 µM | EC50 [5]: > 30 µM | GI50 (TE 125.T, Soft Tissue - Sarcoma, read-out: Cell Count GI50): 28.7 µM | IC50 [5]: > 30 µM | EC50 [6]: 8.14 µM | GI50 (TE 381.T, Soft Tissue - Sarcoma, read-out: Cell Count GI50): 7.99 µM | IC50 [6]: 8.14 µM | EC50 (TF-1, Leukemia): 2.75 µM | GI50 (TF-1, Leukemia, read-out: Cell Count GI50): 2.44 µM | IC50 (TF-1, Leukemia): 2.75 µM | EC50 (THP-1, Thp1, Leukemia): 5.32 µM | GI50 (THP-1, Thp1, Leukemia, read-out: Cell Count GI50): 5.61 µM | IC50 (THP-1, Thp1, Leukemia): 5.69 µM | EC50 (TUR, Lymphoma): 2.63 µM | GI50 (TUR, Lymphoma, read-out: Cell Count GI50): > 30 µM | IC50 (TUR, Lymphoma): > 30 µM | EC50 [7]: 12.7 µM | GI50 (U2OS, Soft Tissue - Osteosarcoma, read-out: Cell Count GI50): 12.7 µM | IC50 [7]: 12.7 µM | EC50 (U138-MG, U-138MG, CNS - Glioma): > 30 µM | GI50 (U138-MG, U-138MG, CNS - Glioma, read-out: Cell Count GI50): > 30 µM | IC50 (U138-MG, U-138MG, CNS - Glioma): > 30 µM | EC50 (U266B1, Myeloma): 9.15 µM | GI50 (U266B1, Myeloma, read-out: Cell Count GI50): 9.01 µM | IC50 (U266B1, Myeloma): 9.28 µM | EC50 (U-87 MG, CNS - Glioma): > 30 µM | GI50 (U-87 MG, CNS - Glioma, read-out: Cell Count GI50): > 30 µM | IC50 (U-87 MG, CNS - Glioma): > 30 µM | EC50 [8]: 29.6 µM | GI50 (U-118-MG, U-118 MG, CNS - Glioma, read-out: Cell Count GI50): 29.4 µM | IC50 [8]: 29.6 µM | EC50 (UMUC3, UM-UC-3, Bladder): 5.3 µM | GI50 (UMUC3, UM-UC-3, Bladder, read-out: Cell Count GI50): 5.74 µM | IC50 (UMUC3, UM-UC-3, Bladder): 5.75 µM | EC50 [9]: > 30 µM | GI50 (VA-ES-BJ, Soft Tissue - Sarcoma, read-out: Cell Count GI50): > 30 µM | IC50 [9]: > 30 µM | EC50 [10]: 6.39 µM | GI50 (WM 266-4, WM-266-4, Skin (Melanoma), read-out: Cell Count GI50): 6.25 µM | IC50 [10]: 6.39 µM | EC50 (WiDr, Colon): 14.5 µM | GI50 (WiDr, Colon, read-out: Cell Count GI50): 14.4 µM | IC50 (WiDr, Colon): 14.5 µM | EC50 (Y79, Eye): 6.57 µM | GI50 (Y79, Eye, read-out: Cell Count GI50): 7.41 µM | IC50 (Y79, Eye): 7.65 µM | EC50 (YAPC, Pancreas): 13 µM | GI50 (YAPC, Pancreas, read-out: Cell Count GI50): 12.9 µM | IC50 (YAPC, Pancreas): 13 µM | GI50 (strong: J-RT3-T3-5, Jurkat, MOLT-3, NALM-6, TF-1, RPMI8226, SKO-007, RD, read-out: GI50): 1 to 2.96 µM
